Columns and labels:
K562 cells = experiment: K562 cell proliferation assay (CellTiter-Glo); format: cell-based; conditions: Homo sapiens, K562 cell viability, 72 hours, read-out: Cell Line (IC50, nM) K562
Description: (§1) K562 and HL60 Cell Proliferation Assay
(§2) K562 and HL60 cells, cultured in Iscove's Modified Dulbecco's Media (IMDM) supplemented with 10% FBS, were harvested at 50-80% confluency and plated at 2,000 cells per well (K562) or 1,500 cells per well (HL60) in 384-well tissue culture plates. A subset of wells contained media only (low control, LC). […] The plates were placed in a 37° C. incubator with 5% CO2 for 72 hours. Cell viability was measured using a CellTiter-Glo luminescent cell viability assay (Promega), which allows for relative quantification of metabolically active cells by luminescence-based measurements of intracellular ATP concentrations. Briefly, plates were removed from the incubator and equilibrated for 15 minutes at room temperature prior to the addition of 40 μL of CellTiter-Glo reagent. Plates were then incubated for 30 minutes at room temperature. Luminescence was measured using an EnSpire plate reader (Perkin Elmer). As noted above, luminescence values from wells with DMSO only or media without cells were used as high and low controls (HC and LC), respectively. Normalized percent viability was calculated as follows: percent viability=100×(Lumsample−LumLC)/(LumHC−LumLC).

HL60 cells = experiment: HL60 cell proliferation assay (CellTiter-Glo); format: cell-based; conditions: Homo sapiens, HL-60, HL60 cell viability, 72 hours, read-out: Cell Line (IC50, nM) HL60
Description: as §1, §2

ABL1 = target: T1, ABL1 (Homo sapiens, UniProt P00519); experiment: Luminescence-based ABL kinase assay (300 μM ATP), ADP-Glo; format: biochemical
T1 construct: purchased Carna Biosciences
Source text: Compounds were serially diluted in DMSO. […] Luminescence signal positively correlates with kinase activity.

ABL1 (T315I) = ABL1 (T315I) (Homo sapiens, UniProt P00519, T315I); experiment: as above; format: biochemical
Description: Kinase activity of ABL1 was measured using the ADP-Glo system (Promega), which measures formation of ADP using a luminescence-based method. Compounds were serially diluted in DMSO. 20 nL of compound or DMSO only (high control, HC) were added to a 384-well plate (OptiPlate-384. PerkinElmer) using an Echo550 liquid handler (Labcyte). 15 μL of kinase solution (10 mM MgCl2, 0.01% Brij-35, 2 mM DTT, 0.05% BSA, 1 mM EGTA, 50 mM HEPES pH 7.5, and 3.325 nM ABL1 [Carna Biosciences]) were added to each well of the 384-well plate containing the compounds. No enzyme control wells were included (low control, LC). The plate was incubated at room temperature for 30 minutes. 5 μL of a second solution containing 10 mM MgCl2, 0.01% Brij-35, 2 mM DTT, 0.05% BSA, 1 mM EGTA, 50 mM HEPES pH 7.5, 6 μM Peptide 2 (Perkin Elmer, Cat No 760346), and 1.2 mM ATP were added to each well to start the kinase reaction. The plate was incubated for 90 minutes at room temperature. 20 μL of ADP-Glo reagent (Promega) were then added to each well and the plate was incubated for 40 minutes at room temperature. 40 μL of kinase detection reagent (Promega) was added to each well and the plate was incubated for an additional 45 minutes at room temperature. During this step, ADP was converted to ATP, a substrate for luciferase, to produce luminescence signal. Luminescence was measured on an Envision plate reader (Perkin Elmer). Luminescence signal positively correlates with kinase activity. The percent kinase activity was calculated as follows: percent kinase activity=100×(Lumsample−LumLC)/(LumHC−LumLC). As noted above, DMSO only and no enzyme wells were used as high and low controls, respectively. IC50 values were calculated using the XLFit software.

Row | SMILES | IC50 (K562 cells) [nM] | IC50 (HL60 cells) [nM] | IC50 (ABL1) [nM] | IC50 (ABL1 (T315I)) [nM]
1 | COc1ccccc1-c1cc2cc(NC(=O)[C@H]3C[C@H]3CO)ncc2n1C (relative stereo) [Compound 23, cis-2-(hydroxymethyl)-N-(2-(2-methoxyphenyl)-1-methyl-1H-pyrrolo[2,3-c]pyridin-5-yl)cyclopropane-1-carboxamide] | 631 | 1690 | 119 | 79.5
2 | COc1ccnc(OC)c1-c1cc2cc(NC(=O)[C@H]3C[C@@H]3CN3C4CCC3CNC4)ncc2n1C (relative stereo) [Compound 147, Trans-2-((3,8-diazabicyclo[3.2.1]octan-8-yl)methyl)-N-(2-(2,4-dimethoxypyridin-3-yl)-1-methyl-1H-pyrrolo[2,3-c]pyridin-5-yl)cyclopropane-1-carboxamide] | 152 |  | 24.4 | 41.8
3 | COc1ccnc(OC)c1-c1cc2cc(NC(=O)[C@@H]3C[C@H]3CN3CCN(C)CC3)ncc2n1C (single isomer, unassigned) [Compound 121] | 99.1 | > 10000 | 88.8 | 87.9
4 | COc1ccnc(OC)c1-c1cc2cc(NC(=O)[C@@H]3C[C@H]3CN(C)C)ncc2n1C (single isomer, unassigned) [Compound 122] | 117 | > 10000 | 53.4 | 52.8
5 | COc1ccnc(OC)c1-c1cc2cc(NC(=O)[C@H]3C[C@@H]3CN(C)C)ncc2n1C (single isomer, unassigned) [Compound 123] | 106 | 1770 | 59.4 | 80.6
6 | COc1ncnc(OC)c1-c1cc2cc(NC(=O)[C@H]3C[C@@H]3CN3CCN(C)CC3)ncc2n1C (single isomer, unassigned) [Compound 124] | 41.4 | > 10000 | 14.9 | 56.7
7 | COc1ncnc(OC)c1-c1cc2cc(NC(=O)[C@@H]3C[C@H]3CN3CCN(C)CC3)ncc2n1C (single isomer, unassigned) [Compound 125] | 113 | > 10000 | 48.3 | 107
8 | COc1ncc(F)c(OC)c1-c1cc2cc(NC(=O)[C@@H]3C[C@H]3CN3CCN(C)CC3)ncc2n1C (single isomer, unassigned) [Compound 129] | 85.5 | > 10000 | 33.4 | 34.6
9 | COc1ncc(F)c(OC)c1-c1cc2cc(NC(=O)[C@@H]3C[C@H]3CN(C)C)ncc2n1C (single isomer, unassigned) [Compound 130] | 108 | > 10000 | 37.3 | 58.1
10 | COc1nc(N(C)C)nc(OC)c1-c1cc2cc(NC(=O)[C@@H]3C[C@@H]3F)ncc2n1C [Compound 104, (1S,2S)-N-(2-(2-(dimethylamino)-4,6-dimethoxypyrimidin-5-yl)-1-methyl-1H-pyrrolo[2,3-c]pyridin-5-yl)-2-fluorocyclopropane-1-carboxamide] |  | 240 |  | 
11 | [2H]C([2H])([2H])Oc1ncnc(OC([2H])([2H])[2H])c1-c1cc2cc(NC(=O)[C@@H]3C[C@@H]3F)ncc2n1C([2H])([2H])[2H] [Compound 111, (1S,2S)-N-(2-(4,6-bis(methoxy-d3)pyrimidin-5-yl)-1-(methyl-d3)-1H-pyrrolo[2,3-c]pyridin-5-yl)-2-fluorocyclopropane-1-carboxamide] | 23 |  |  | 
12 | [2H]C([2H])([2H])Oc1ncnc(OC([2H])([2H])[2H])c1-c1cc2cc(NC(=O)[C@@H]3C[C@@H]3F)ncc2[nH]1 [Compound 144, (1S,2S)-N-(2-(4,6-bis(methoxy-d3)pyrimidin-5-yl)-1H-pyrrolo[2,3-c]pyridin-5-yl)-2-fluorocyclopropane-1-carboxamide] | 1070 | > 10000 |  | 

The next lines start with the values.

Row | IC50 (K562 cells) [nM] | IC50 (HL60 cells) [nM] | IC50 (ABL1) [nM] | IC50 (ABL1 (T315I)) [nM] | SMILES
13 | 165 |  | 59.4 | 75.1 | COc1ccccc1-c1cc2cc(NC(=O)[C@@H]3C[C@H]3CN(C)C)ncc2n1C (single isomer, unassigned) [Compound 132]
14 | 181 |  | 73.5 | 85.9 | COc1ccccc1-c1cc2cc(NC(=O)[C@H]3C[C@@H]3CN(C)C)ncc2n1C (single isomer, unassigned) [Compound 133]
15 | 109 | 202 | 25.4 | 17.7 | COc1ccccc1-c1cc2cc(NC(=O)C3CC3)ncc2n1C [Compound 2, N-(2-(2-methoxyphenyl)-1-methyl-1H-pyrrolo[2,3-c]pyridin-5-yl)cyclopropanecarboxamide]
16 | 127 | 209 |  |  | CCOc1ccccc1-c1cc2cc(NC(=O)C3CC3)ncc2n1C [Compound 3, N-[2-(2-ethoxyphenyl)-1-methylpyrrolo[2,3-c]pyridin-5-yl]cyclopropanecarboxamide]
17 | 37.8 | 60.9 | 9.22 | 6.59 | Cc1c(O)cccc1-c1cc2cc(NC(=O)C3CC3)ncc2n1C [Compound 7, N-[2-(3-hydroxy-2-methylphenyl)-1-methylpyrrolo[2,3-c]pyridin-5-yl]cyclopropanecarboxamide]
18 | 95.6 | 59.1 |  |  | Cc1cc(O)ccc1-c1cc2cc(NC(=O)C3CC3)ncc2n1C [Compound 8, N-[2-(4-hydroxy-2-methylphenyl)-1-methylpyrrolo[2,3-c]pyridin-5-yl]cyclopropanecarboxamide]
19 | 0.421 | 182 | 13.8 | 38.6 | COc1cccc(C)c1-c1cc2cc(NC(=O)C3CC3)ncc2n1C [Compound 11, N-[2-(2-methoxy-6-methylphenyl)-1-methylpyrrolo[2,3-c]pyridin-5-yl]cyclopropanecarboxamide]
20 | 317 | 4220 |  |  | Cc1ccc(F)cc1-c1cc2cc(NC(=O)C3CC3)ncc2n1C [Compound 12, N-[2-(5-fluoro-2-methylphenyl)-1-methylpyrrolo[2,3-c]pyridin-5-yl]cyclopropanecarboxamide]
21 | 179 | 958 |  |  | COc1ncccc1-c1cc2cc(NC(=O)C3CC3)ncc2n1C [Compound 22, N-[2-(2-methoxypyridin-3-yl)-1-methylpyrrolo[2,3-c]pyridin-5-yl]cyclopropanecarboxamide]
22 | 122 | 794 | 9.33 | 8.34 | Cc1c(O)cccc1-c1cc2cc(NC(=O)[C@@H]3C[C@@H]3F)ncc2n1C [Compound 24, (1S,2S)-2-fluoro-N-(2-(3-hydroxy-2-methylphenyl)-1-methyl-1H-pyrrolo[2,3-c]pyridin-5-yl)cyclopropane-1-carboxamide]
23 | 66.2 |  | 49.2 | 233 | COc1nc(C2CC2)nc(OC)c1-c1cc2cc(NC(=O)[C@@H]3C[C@@H]3F)ncc2n1C [Compound 100, (1S,2S)-N-(2-(2-cyclopropyl-4,6-dimethoxypyrimidin-5-yl)-1-methyl-1H-pyrrolo[2,3-c]pyridin-5-yl)-2-fluorocyclopropane-1-carboxamide]
24 | 456 |  | 153 | 2330 | COc1nc(C)c(F)c(OC)c1-c1cc2cc(NC(=O)[C@@H]3C[C@@H]3F)ncc2n1C [Compound 101, (1S,2S)-2-fluoro-N-[2-(5-fluoro-2,4-dimethoxy-6-methylpyridin-3-yl)-1-methylpyrrolo[2,3-c]pyridin-5-yl]cyclopropane-1-carboxamide]
25 | 53.1 |  |  |  | COc1cccc(OC)c1-c1cc2cc(NC(=O)[C@@H]3C[C@H]3CN(C)C)ncc2n1C [Compound 134, (1R,2R)-N-(2-(2,6-dimethoxyphenyl)-1-methyl-1H-pyrrolo[2,3-c]pyridin-5-yl)-2-((dimethylamino)methyl)cyclopropane-1-carboxamide]
26 | 27.9 |  |  |  | COc1cccc(OC)c1-c1cc2cc(NC(=O)[C@H]3C[C@@H]3CN(C)C)ncc2n1C [Compound 135, (J S,2S)-N-(2-(2,6-dimethoxyphenyl)-1-methyl-1H-pyrrolo[2,3-c]pyridin-5-yl)-2-((dimethylamino)methyl)cyclopropane-1-carboxamide]
27 | 98.8 | 1200 |  |  | COc1ncnc(OC)c1-c1cc2cc(NC(=O)[C@@H]3CC3(F)F)ncc2n1C [Compound 136, (1S)-N-[2-(4,6-dimethoxypyrimidin-5-yl)-1-methylpyrrolo[2,3-c]pyridin-5-yl]-2,2-difluorocyclopropane-1-carboxamide]
28 | 37 | 148 |  |  | COc1ncnc(OC)c1-c1cc2cc(NC(=O)[C@H]3CC3(F)F)ncc2n1C [Compound 137, (1R)-N-[2-(4,6-dimethoxypyrimidin-5-yl)-1-methylpyrrolo[2,3-c]pyridin-5-yl]-2,2-difluorocyclopropane-1-carboxamide]
29 | 291 | > 10000 | 95.8 |  | Cn1c(-c2cc(F)cnc2OC2CC2)cc2cc(NC(=O)[C@@H]3C[C@@H]3F)ncc21 [Compound 140, (1S,2S)-N-[2-(2-cyclopropoxy-5-fluoropyridin-3-yl)-1-methylpyrrolo[2,3-c]pyridin-5-yl]-2-fluorocyclopropane-1-carboxamide]
